Results reported in patent publication US20090281143A1, “Dose Reduction of a Cannabinoid CB1 Receptor Antagonist in the Treatment of Overweight or Obesity” (N-Gene Research Laboratories, Inc., priority 2007, published 2009).

Test: Inhibition of body weight gain in high fat diet exposed mice
Conditions: for weight gain in relation to that of the control group fed with standard laboratory chow: excess over chow control
Experimental: OF-1 female mice weighing about 18-20 g at the beginning of the experiment were used in the study. […] The high fat diet consisted of palatable food that contained 50% fat. The group on standard laboratory chow was also treated with vehicle. Treatment was performed with all of the drugs, orally, at 5 ppm. The weight of the animals was measured weekly.

Cc1c(C(=O)NN2CCCCC2)nn(-c2ccc(Cl)cc2Cl)c1-c1ccc(Cl)cc1 [rimonabant, N-piperidino-5-(4-chlorophenyl)-1-(2,4-dichlorophenyl)-4-methylpyrazole-3-carboxamide]
Body weight gain in g after 2 weeks (rimonabant 2 mg/kg daily oral, after 2 weeks): 10.6 g | Body weight gain in g after 3 weeks (rimonabant 2 mg/kg daily oral, after 3 weeks): 14.1 g | weight gain in relation to that of the control group fed with standard laboratory chow (rimonabant 2 mg/kg, after 2 weeks): 22% | weight gain in relation to that of the control group fed with standard laboratory chow (rimonabant 2 mg/kg, after 3 weeks): 33% | Body weight gain in g after 2 weeks (rimonabant 10 mg/kg daily oral, after 2 weeks): 10.2 g | Body weight gain in g after 3 weeks (rimonabant 10 mg/kg daily oral, after 3 weeks): 13.0 g | weight gain in relation to that of the control group fed with standard laboratory chow (rimonabant 10 mg/kg, after 2 weeks): 17% | weight gain in relation to that of the control group fed with standard laboratory chow (rimonabant 10 mg/kg, after 3 weeks): 22.6%
